Assay results reported in patent US6900200B2, “Tricyclic hydroxy carboxamides and derivatives thereof tocolytic oxytocin receptor antagonists” (Wyeth, priority 2001, dated 2005).

Experiments:
[1] = target: T1, human vasopressin V2 receptor subtype (Homo sapiens, UniProt P30518); assay: Vasopressin binding in CHO cell membranes expressing human vasopressin V2 subtype receptors ([3H]arginine vasopressin radioligand binding); settings: for inhibition at 0.1 µM: @ 100 nM; for IC50: value printed in parentheses
T1 construct: host or cells: CHO cells, pZeoSV vector
Description: Vasopressin Binding in Chinese Hamster Ovary Cell Membranes Expressing Human Vasopressin V2 Subtype Receptors
Chinese Hamster Ovary (CHO) cells stably transfected with the human V2 subtype receptors were obtained from M. Thibonnier, Case Western Reserve University School of Medicine, Cleveland, Ohio.
A. Passaging and Amplification of Cells
CHO cells transfected with the human vasopressin V2 subtype receptors obtained from M. Thibonnier (pZeoSV vector) are allowed to grow to confluency (approx. >90%) in T-150 flasks under sterile conditions, in a cell culture medium ofF-12 Nutrient Mixture (HAM) with L-glutamine (Gibco Cat. #11765-054) containing 15 mM HEPES (Gibco Cat. #15630-080), 1% antibiotic/antimycotic (add 5 mL 100×, Gibco Cat. #15240-062 per 500 mL F-12), 250 μg/mL Zeocin (add 1.25 mL of 100 mg/mL Invitrogen R-250-01 per 500 mL F-1 2) and 10% Fetal Bovine Serum (Qualified, heat inactivated, Gibco Cat. #16140-063). The medium is removed by aspiration and the cells washed with 10 mL of Hank's Balanced Salt solution (Gibco Cat. #14175-095). The salt solution is removed by aspiration and the cells trypsinized with 5 mL of trypsin-EDTA (0.05% trypsin, 0.53 mM EDTA-4Na, Gibco Cat. #25300-070) for 1 min. The trypsin is removed by aspiration and the cells dislodged by tapping. Cell Culture medium (e.g. 30 mL for 1:30 split) is immediately added and mixed well to inactivate trypsin. 1 mL of detached cells is added to new culture flasks containing fresh Cell Culture medium (e.g. into 25 mL per T-150 flask), and mixed gently. The cells are incubated at 37° C. in 5% CO2. The medium is changed at 3 to 4 day interval (or as appropriate). The cells grow to confluency (approx. >75%-95%) within 7-8 days. All steps are done under sterile conditions.
The cells are washed twice gently with Hank's Balanced Salt solution (e.g. use 10 mL per T-150 flask). The excess solution is removed and the cells bathed for 15-30 min. in an enzyme-free Cell Dissociation Buffer (e.g. use 8 mL Hank's Based, Gibco Cat. # 13150-016 per T-150 flask) until cells are loosened. The contents are transferred to centrifuge tubes (50 mL) kept in ice bath. All subsequent steps are done at 4° C. The tubes are centrifuged at 300×g for 15 min (1380 rpm on SORVAL, Model RT6000D, using the rotor for 50 mL tubes). The supernatant is discarded and the cells suspended in homogenizing buffer (10 mM Tris-HCl containing 0.25 M sucrose and 1 mM EDTA, pH 7.4) ensuring that the volume of the buffer is about ten times the volume of the cell pellet. The cells are pooled into a centrifuge tube (50 mL) and homogenized with Polytron at setting 6 for 10 sec. The homogenate is transferred into a Potter-Elvjehm homogenizer and homogenized with 3 strokes. The homogenate is centrifuged at 1500×g for 60 min at 4° C. (3100 rpm using SORVAL, model RT6000D, using the rotor for 50 mL tubes). The pellet is discarded. The supernatant is centrifuged at 100,000×g for 60 min. at 4° C. (Beckman L8-80M ultracentrifuge; spin at 37,500 rpm with rotor type 70 Ti for 50 mL tubes; 38,000 rpm with type 80Ti for 15 mL tubes; or 35,800 rpm with rotor type 45Ti). The supernantant is discarded and the pellet suspended in 3 to 4 mL of Tris buffer (50 mM TRIS—HCl, pH 7.4). The protein content is estimated by the Bradford or Lowry method. The volume of the membrane suspension is adjusted with the membrane buffer (50 mM Tris-HCl containing 0.1% BSA and 0.1 mM PMSF) to give 3.0 mg/mL (or as appropriate) of protein. The membranes are aliquoted and stored at −70. ° C.
C. Radioligand Binding Assay
In wells of a 96-well format microtiter plate, is added 90, 110 or 130 μL (to make up a final volume of 200 μL) of assay buffer containing 50 mM of Tris-HCl (pH 7.4), […], 1 mg % aprotinin, 1 mg % leupeptin, 2 mg % 1,10-phenanthroline, 10 mg % trypsin inhibitor, and 0.1 mM PMSF. The inhibitors are added on the day of the experiment. […]

T1 sequence (P30518 whole entry): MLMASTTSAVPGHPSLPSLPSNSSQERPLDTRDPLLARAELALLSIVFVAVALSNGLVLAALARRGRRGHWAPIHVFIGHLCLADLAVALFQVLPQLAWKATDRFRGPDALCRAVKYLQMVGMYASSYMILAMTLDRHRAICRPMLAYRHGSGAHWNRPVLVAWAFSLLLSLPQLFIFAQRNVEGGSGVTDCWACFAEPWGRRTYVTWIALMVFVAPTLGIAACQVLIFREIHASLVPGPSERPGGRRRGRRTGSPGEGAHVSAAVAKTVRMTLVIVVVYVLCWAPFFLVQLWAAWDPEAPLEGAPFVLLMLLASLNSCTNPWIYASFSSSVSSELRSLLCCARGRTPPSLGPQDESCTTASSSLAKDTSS

Row | inhibition at 0.1 µM [1] [%] | melting point | IC50 [1] [nM] | Compound
1 | -5 | 184 to 186 °C |  | COc1cc2c(cc1OC)N(C(=O)c1ccc(-c3ccccc3C(F)(F)F)c(C)c1)Cc1ccc(C(=O)N(C)CC(O)CO)n1C2 (stereo not shown) [Example 18, N-(2,3-Dihydroxypropyl)-7,8-dimethoxy-N-methyl-10-{[2-methyl-2′-trifluoromethyl-[1,1′-biphenyl]-4-yl]carbonyl}-10,11-dihydro-5H-pyrrolo[2,1-c][1,4]benzodiazepine-3-carboxamide]
2 | 3 | 130 to 132 °C |  | COc1cc2c(cc1OC)N(C(=O)c1ccc(-c3ccccc3C(F)(F)F)c(C)c1)Cc1ccc(C(=O)N(CCO)CCO)n1C2 [Example 19, N,N-Bis(2-Hydroxyethyl)-7,8-dimethoxy-10-{[2-methyl-2′-trifluoromethyl-[1,1′-biphenyl]-4-yl]carbonyl}-10,11-dihydro-5H-pyrrolo[2,1-c][1,4]benzodiazepine-3-carboxamide]
3 |  | 119 to 123 °C | 311 | COc1cc(C(=O)N2Cc3ccc(C(=O)N(C)CC(O)CO)n3Cc3ccccc32)ccc1-c1ccccc1C(F)(F)F (stereo not shown) [Example 21, N-(2,3-Dihydroxypropyl)-10-{[2-methoxy-2′-trifluoromethyl-[1,1′-biphenyl]-4-yl]carbonyl}-N-methyl-10,11-dihydro-5H-pyrrolo[2,1-c][1,4]benzodiazepine-3-carboxamide]
4 |  | 120 to 125 °C (dec.) | 1140 | COc1cc(C(=O)N2Cc3ccc(C(=O)N(C)CC(O)CN(C)C)n3Cc3ccccc32)ccc1-c1ccccc1C(F)(F)F (stereo not shown) [Example 22, N-[(3-Dimethylamino)-2-hydroxy-propyl]-10-{[2-methoxy-2′-trifluoromethyl-[1,1′-biphenyl]-4-yl]carbonyl}-N-methyl-10,11-dihydro-5H-pyrrolo[2,1-c][1,4]benzodiazepine-3-carboxamide]
5 | 7 | 110 to 120 °C |  | COc1cc2c(cc1OC)N(C(=O)c1ccc(-c3ccccc3OC)c(C)c1)Cc1ccc(C(=O)N(C)C[C@H](O)[C@@H](O)[C@H](O)[C@H](O)CO)n1C2 [Example 37, 7,8-Dimethoxy-10-[(2′-methoxy-2-methyl-[1,1′-biphenyl]-4-yl)carbonyl]-10,11-dihydro-5H-pyrrolo[2,1-c][1,4]benzodiazepine-3-carboxylic acid methyl-[(2S, 3R, 4R, 5R)-2,3,4,5,6-pentahydroxy-hexyl)-amide]
